Data on 37 substances can be found in patent US20230293644A1, “ANTI-INFLAMMATORY PEPTIDES AND COMPOSITION COMPRISING THE SAME” (Gemvax & KAEL Co., Ltd., priority 2012, published 2023).

The subject of this test is TNF-α. The test is described as follows: Screening of TNF-α inhibitory effect, LPS-stimulated PBMC-derived monocytes (Example 2). The test is classed as cell-based, human. Particulars: 4 uM peptide, 2 hrs, LPS 10 ng/ml; for TNF-α inhibiting effect compared to the group treated with LPS and estrogen: estrogen 20 nM. The procedure: PBMC (peripheral blood mononuclear cells) layer was separated from blood samples (50 ml) collected in healthy subjects using Biocoll Separating Solution (Biochrom AG, Berlin, Germany). The collected PBMC were enriched in RPMI 1640 medium containing 20% human serum for 30 mins, and then transferred to 100-mm polystyeren cell culture plate coated with human serum for incubation for 2 hrs at 37° C., 5% CO^2 incubator. Monocytes were detached from the bottom of the plate using cold PBS, and incubated to reach the number of 1 × 10^5 cell/well in 96-well plate with RPMI 1640 medium (supplemented with penicillinstreptomycin; […], human serum; 20%) over night.
ELISA was performed to find out how the peptides of the PEP RIA series influence TNF-α level. PBMC-derived monocytes were incubated to reach the number of 1 × 10^5 cells per well in a 96-well plate and then treated with LPS (lipopolysaccharide; 10 ng/ml, Sigma) for 2 hours. To the monocytes that were washed three times with PBS, OPTI-MEM culture medium was added to induce cell starvation for an hour, 4 µM of the peptide was taken out and incubated for 2 hours. There were three negative control groups. The first group was not treated with anything. The second group that was treated with estrogen (in this experiment, estradiol was used as a kind of estrogen). The third group was treated with LPS (10 ng/ml) or with LPS (10 ng/ml) as well as estrogen (20 nM). PEP1 that was confirmed to have TNF-α inhibiting activity was used as a positive control to measure TNF-α inhibiting activity. After incubation, TNF-α was measured by following the ELISA kit manual (R&D, Minneapolis, MN, USA). The details of quantification method can be found in Experiment 2.2 of Example 1.
Using the method stated above, Peptides with TNF-α inhibiting effect were screened. PBMC-derived monocytes were stimulated with LPS (10 ng/ml), which is endotoxin, for 2 hours and were induced to starve by adding OPTI-MEM for 1 hour. After that, 4 uM of 179 peptides were treated and incubated for 2 hrs. The amount of TNF-α in the cell culture medium was measured using ELISA, and the peptides with TNF-α inhibiting effect were screened by comparing to the negative and positive controls (FIG. 3 to FIG. 23).

On to “AEVRQHREARPALLTSRLRFIPKPDG (listed as Homo sapiens) [SEQ ID NO: 54]”, for which the “TNF-α inhibiting effect compared to the control group treated with only LPS” value was “showed TNF-α inhibiting effect”; the “TNF-α inhibiting effect compared to the group treated with LPS and estrogen” value is on record as “showed TNF-α inhibiting effect”.
As to “AEVRQHREARPALLTSRLRFIPKPDGL (listed as Homo sapiens) [SEQ ID NO: 55]”, the “TNF-α inhibiting effect compared to the control group treated with only LPS” value is “showed TNF-α inhibiting effect”; the “TNF-α inhibiting effect compared to the group treated with LPS and estrogen” value was “showed TNF-α inhibiting effect”.
For the substance “AEVRQHREARPALLTSRLRFIPKPDGLR (listed as Homo sapiens) [SEQ ID NO: 56]”, the “TNF-α inhibiting effect compared to the control group treated with only LPS” value was “showed TNF-α inhibiting effect”; the “TNF-α inhibiting effect compared to the group treated with LPS and estrogen” value is given as “showed TNF-α inhibiting effect”.
Take “AEVRQHREARPALLTSRLRFIPKPDGLRP (listed as Homo sapiens) [SEQ ID NO: 57]”: the “TNF-α inhibiting effect compared to the control group treated with only LPS” value was “showed TNF-α inhibiting effect”.
On the same count and under the same terms, under “AEVRQHREARPALLTSRLRFIPKPDGLRPI (listed as Homo sapiens) [SEQ ID NO: 58]” stands “showed TNF-α inhibiting effect”; under “ALLTSR (listed as Homo sapiens) [SEQ ID NO: 142]”, “showed TNF-α inhibiting effect”; under “ALLTSRL (listed as Homo sapiens) [SEQ ID NO: 141]”, “showed TNF-α inhibiting effect”.
“ALLTSRLRF (listed as Homo sapiens) [SEQ ID NO: 140]”: the “TNF-α inhibiting effect compared to the control group treated with only LPS” value is on record as “showed TNF-α inhibiting effect”; the “TNF-α inhibiting effect compared to the group treated with LPS and estrogen” value is given as “showed TNF-α inhibiting effect”.
For “ARPA (listed as Homo sapiens) [SEQ ID NO: 119]”, the “TNF-α inhibiting effect compared to the control group treated with only LPS” value is listed as “showed TNF-α inhibiting effect”.
As for “ARPAL (listed as Homo sapiens) [SEQ ID NO: 118]”, the “TNF-α inhibiting effect compared to the control group treated with only LPS” value was “showed TNF-α inhibiting effect”.
Take “ARPALL (listed as Homo sapiens) [SEQ ID NO: 117]”: the “TNF-α inhibiting effect compared to the control group treated with only LPS” value is “showed TNF-α inhibiting effect”; the “TNF-α inhibiting effect compared to the group treated with LPS and estrogen” value was “showed TNF-α inhibiting effect”.
Consider “ARPALLT (listed as Homo sapiens) [SEQ ID NO: 116]”, for which the “TNF-α inhibiting effect compared to the control group treated with only LPS” value is reported as “showed TNF-α inhibiting effect”; the “TNF-α inhibiting effect compared to the group treated with LPS and estrogen” value was “showed TNF-α inhibiting effect”.
Regarding “ARPALLTSRLRF (listed as Homo sapiens) [SEQ ID NO: 111]”, the “TNF-α inhibiting effect compared to the control group treated with only LPS” value was “showed TNF-α inhibiting effect”.
Regarding “ARPALLTSRLRFI (listed as Homo sapiens) [SEQ ID NO: 110]”, the “TNF-α inhibiting effect compared to the control group treated with only LPS” value is recorded as “showed TNF-α inhibiting effect”; the “TNF-α inhibiting effect compared to the group treated with LPS and estrogen” value is “showed TNF-α inhibiting effect”.
For the substance “ARPALLTSRLRFIP (listed as Homo sapiens) [SEQ ID NO: 104]”, the “TNF-α inhibiting effect compared to the control group treated with only LPS” value was “showed TNF-α inhibiting effect”.
For “ARPALLTSRLRFIPK (listed as Homo sapiens) [SEQ ID NO: 91]”, the “TNF-α inhibiting effect compared to the control group treated with only LPS” value is “showed TNF-α inhibiting effect”; the “TNF-α inhibiting effect compared to the group treated with LPS and estrogen” value is “showed TNF-α inhibiting effect”.
As for “EAEVRQHREARPALLTSRLRFIPK (listed as Homo sapiens) [SEQ ID NO: 9]”, the “TNF-α inhibiting effect compared to the control group treated with only LPS” value is reported as “showed TNF-α inhibiting effect”; the “TNF-α inhibiting effect compared to the group treated with LPS and estrogen” value is given as “showed TNF-α inhibiting effect”.
Consider EAR [SEQ ID NO: 90], for which the “TNF-α inhibiting effect compared to the control group treated with only LPS” value is given as “showed TNF-α inhibiting effect”; the “TNF-α inhibiting effect compared to the group treated with LPS and estrogen” value was “showed TNF-α inhibiting effect”.
Take “EARP (listed as Homo sapiens) [SEQ ID NO: 89]”: the “TNF-α inhibiting effect compared to the control group treated with only LPS” value was “showed TNF-α inhibiting effect”; the “TNF-α inhibiting effect compared to the group treated with LPS and estrogen” value is “showed TNF-α inhibiting effect”.
As to “EARPA (listed as Homo sapiens) [SEQ ID NO: 88]”, the “TNF-α inhibiting effect compared to the control group treated with only LPS” value is listed as “showed TNF-α inhibiting effect”; the “TNF-α inhibiting effect compared to the group treated with LPS and estrogen” value is listed as “showed TNF-α inhibiting effect”.
Turning to “EARPALLTS (listed as Homo sapiens) [SEQ ID NO: 84]”, the “TNF-α inhibiting effect compared to the control group treated with only LPS” value is on record as “showed TNF-α inhibiting effect”.
Turning to “EARPALLTSR (listed as Homo sapiens) [SEQ ID NO: 83]”, the “TNF-α inhibiting effect compared to the control group treated with only LPS” value was “showed TNF-α inhibiting effect”; the “TNF-α inhibiting effect compared to the group treated with LPS and estrogen” value is listed as “showed TNF-α inhibiting effect”.
With “EARPALLTSRL (listed as Homo sapiens) [SEQ ID NO: 82]”, the “TNF-α inhibiting effect compared to the control group treated with only LPS” value is on record as “showed TNF-α inhibiting effect”; the “TNF-α inhibiting effect compared to the group treated with LPS and estrogen” value was “showed TNF-α inhibiting effect”.
“EARPALLTSRLR (listed as Homo sapiens) [SEQ ID NO: 81]”: the “TNF-α inhibiting effect compared to the control group treated with only LPS” value was “showed TNF-α inhibiting effect”; the “TNF-α inhibiting effect compared to the group treated with LPS and estrogen” value is reported as “showed TNF-α inhibiting effect”.
Consider “EARPALLTSRLRF (listed as Homo sapiens) [SEQ ID NO: 80]”, for which the “TNF-α inhibiting effect compared to the control group treated with only LPS” value is listed as “showed TNF-α inhibiting effect”; the “TNF-α inhibiting effect compared to the group treated with LPS and estrogen” value is “showed TNF-α inhibiting effect”.
Take “EARPALLTSRLRFIPKP (listed as Homo sapiens) [SEQ ID NO: 65]”: the “TNF-α inhibiting effect compared to the control group treated with only LPS” value is given as “showed TNF-α inhibiting effect”; the “TNF-α inhibiting effect compared to the group treated with LPS and estrogen” value was “showed TNF-α inhibiting effect”.
In the case of “EARPALLTSRLRFIPKPD (listed as Homo sapiens) [SEQ ID NO: 66]”, the “TNF-α inhibiting effect compared to the control group treated with only LPS” value was “showed TNF-α inhibiting effect”.
For the substance “EARPALLTSRLRFIPKPDGLRPI (listed as Homo sapiens) [SEQ ID NO: 70]”, the “TNF-α inhibiting effect compared to the control group treated with only LPS” value is given as “showed TNF-α inhibiting effect”; the “TNF-α inhibiting effect compared to the group treated with LPS and estrogen” value was “showed TNF-α inhibiting effect”.
In the case of “EARPALLTSRLRFIPKPDGLRPIV (listed as Homo sapiens) [SEQ ID NO: 71]”, the “TNF-α inhibiting effect compared to the control group treated with only LPS” value is given as “showed TNF-α inhibiting effect”; the “TNF-α inhibiting effect compared to the group treated with LPS and estrogen” value is given as “showed TNF-α inhibiting effect”.
On to “EARPALLTSRLRFIPKPDGLRPIVN (listed as Homo sapiens) [SEQ ID NO: 72]”, for which the “TNF-α inhibiting effect compared to the control group treated with only LPS” value is “showed TNF-α inhibiting effect”; the “TNF-α inhibiting effect compared to the group treated with LPS and estrogen” value is listed as “showed TNF-α inhibiting effect”.
As for “EARPALLTSRLRFIPKPDGLRPIVNMD (listed as Homo sapiens) [SEQ ID NO: 74]”, the “TNF-α inhibiting effect compared to the control group treated with only LPS” value is on record as “showed TNF-α inhibiting effect”.
Still for that read-out and setting: to “ELSEAEVRQHREARPALLTSRLRFIPK (listed as Homo sapiens) [SEQ ID NO: 12]” belongs “showed TNF-α inhibiting effect”.
Consider “EVRQHREARPALLTSRLRFIPKPD (listed as Homo sapiens) [SEQ ID NO: 42]”, for which the “TNF-α inhibiting effect compared to the control group treated with only LPS” value is listed as “showed TNF-α inhibiting effect”; the “TNF-α inhibiting effect compared to the group treated with LPS and estrogen” value is “showed TNF-α inhibiting effect”.
As to “EVRQHREARPALLTSRLRFIPKPDG (listed as Homo sapiens) [SEQ ID NO: 43]”, the “TNF-α inhibiting effect compared to the control group treated with only LPS” value is reported as “showed TNF-α inhibiting effect”; the “TNF-α inhibiting effect compared to the group treated with LPS and estrogen” value is “showed TNF-α inhibiting effect”.
For the substance “EVRQHREARPALLTSRLRFIPKPDGL (listed as Homo sapiens) [SEQ ID NO: 44]”, the “TNF-α inhibiting effect compared to the control group treated with only LPS” value is reported as “showed TNF-α inhibiting effect”; the “TNF-α inhibiting effect compared to the group treated with LPS and estrogen” value was “showed TNF-α inhibiting effect”.
“EVRQHREARPALLTSRLRFIPKPDGLR (listed as Homo sapiens) [SEQ ID NO: 45]”: the “TNF-α inhibiting effect compared to the control group treated with only LPS” value is listed as “showed TNF-α inhibiting effect”.
On to “EVRQHREARPALLTSRLRFIPKPDGLRP (listed as Homo sapiens) [SEQ ID NO: 46]”, for which the “TNF-α inhibiting effect compared to the control group treated with only LPS” value is given as “showed TNF-α inhibiting effect”.
